Drawing on patent publication US8883167B2, “Ethanol extract of Antrodia camphorata for inducing apoptosis and preparation method thereof” (Kaohsiung Medical University, priority 2009, dated 2014), this text covers IC50 for one molecule.

Structures are written as SMILES. Values after ≈ are worked out from the molar mass of the structure shown.

In this test the test system is HL 60 cells. Nature of the test: MTT cytotoxicity / antiproliferative assay on HL 60 cells. Type of test: cell-based. The note with it: Homo sapiens, Embodiment 1, 24 hours, read-out: 50% inhibition concentration (IC50) on HL 60 cells by MTT assay. How it is done: Human leukemia HL 60 cell line was purchased from American Type Culture Collection (ATCC, Manassas, Va.) and incubated in RPMI 1640 medium supplemented with 10% fetal calf serum, 2 mM glutamine, 100 units/ml penicillin and 100 μg/ml streptomycin at 37° C. in a humidified atmosphere of 5% carbon dioxide.
Cell viability was determined by the trypan blue dye exclusion and cytotoxicity was assessed by MTT assay. First, 1×10^5 HL 60 cells were plated in 96-well plates and treated with different concentrations of EEAC dissolved in dimethyl sulfoxide (DMSO) at the concentrations of 0 to 150 μg/ml for 24 hours. Death cells then were stained with trypan blue, and the survival cells were calculated with hemocytometer. In MTT assay, 1.2 mg/ml MTT was added in each well, which was incubated for 2 hours to form […], formazan. Formazan was dissolved in DMSO, and absorbance was detected at a wavelength of 570 nm.

For `C=C(CC[C@@H](C)C1CCC2C3=C(C(=O)CC21C)C1(C)CCC(=O)[C@@H](C)C1CC3=O)C(C)C(=O)O` (stereo partly shown) [zhankuic acid A], the IC50 was 5.45 µg/mL (≈ 11.6 µM).
